ChEMBL document CHEMBL1201862, “PubChem BioAssay data set” (2004)
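Interpolation was linear, between the two tested concentrations surrounding the appropriate level; five concentrations were tested over 48 hours in 96-well plates. GI50 is the concentration that inhibits growth by half.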 Active and inactive are the calls of the source. No stated cut-off is given here; in the data, active = GI50 up to about 1.1 µM and inactive = higher.

Columns and labels:
Assay in all cases: DTP human tumour cell line panel, 48 h
SF-268 = system: SF-268
MDA-MB-435 = system: MDA-MB-435
SK-MEL-5 = system: SK-MEL-5
COLO 205 = system: COLO 205
OVCAR-5 = system: OVCAR-5
SN12C = system: SN12C
OVCAR-3 = system: OVCAR-3
Hs-578T = system: Hs-578T
RXF 393 = system: RXF 393
OVCAR-4 = system: OVCAR-4
UO-31 = system: UO-31
TK-10 = system: TK-10
BT-549 = system: BT-549
A498 = system: A498
OVCAR-8 = system: OVCAR-8
MDA-N = system: MDA-N
HOP-92 = system: HOP-92
EKVX = system: EKVX
SK-MEL-2 = system: SK-MEL-2
DU-145 = system: DU-145

Compound	GI50 (SF-268)	GI50 (MDA-MB-435)	GI50 (SK-MEL-5)	GI50 (COLO 205)	GI50 (OVCAR-5)	GI50 (SN12C)	GI50 (OVCAR-3)	GI50 (Hs-578T)	GI50 (RXF 393)	GI50 (OVCAR-4)	GI50 (UO-31)	GI50 (TK-10)	GI50 (BT-549)	GI50 (A498)	GI50 (OVCAR-8)	GI50 (MDA-N)	GI50 (HOP-92)	GI50 (EKVX)	GI50 (SK-MEL-2)	GI50 (DU-145)
Cn1c(=O)c2[nH]c(CCC(=O)O)nc2n(C)c1=O	> 100 µM (inactive)	> 100 µM (inactive)	> 100 µM (inactive)	> 100 µM (inactive)	> 100 µM (inactive)	> 100 µM (inactive)	> 100 µM (inactive)	> 100 µM (inactive)	> 100 µM (inactive)	> 100 µM (inactive)	> 100 µM (inactive)	> 100 µM (inactive)	> 100 µM (inactive)	> 100 µM (inactive)	> 100 µM (inactive)	> 100 µM (inactive)	> 100 µM (inactive)	> 100 µM (inactive)	> 100 µM (inactive)	> 100 µM (inactive)
c1cc(CNCCN2CCNCC2)ccn1	> 100 µM (inactive)	> 100 µM (inactive)	> 100 µM (inactive)	> 100 µM (inactive)	> 100 µM (inactive)	> 100 µM (inactive)	> 100 µM (inactive)	> 100 µM (inactive)	> 100 µM (inactive)	> 100 µM (inactive)	> 100 µM (inactive)	20.3 µM (inactive)	> 100 µM (inactive)	> 100 µM (inactive)	> 100 µM (inactive)	> 100 µM (inactive)	> 100 µM (inactive)	> 100 µM (inactive)	> 100 µM (inactive)	> 100 µM (inactive)
O=C(O)c1ccccc1NC(c1ccccc1)c1ccc2cccnc2c1O (stereo not given)	5.19 µM (inactive)	14.8 µM (inactive)	8.39 µM (inactive)	15.7 µM (inactive)	8.97 µM (inactive)	6.58 µM (inactive)	3.63 µM (inactive)	22.4 µM (inactive)	10 µM (inactive)	5.78 µM (inactive)	6.12 µM (inactive)	13.8 µM (inactive)	11 µM (inactive)	24.6 µM (inactive)	4.85 µM (inactive)	13.4 µM (inactive)	26.9 µM (inactive)	6.18 µM (inactive)	25.2 µM (inactive)	18.7 µM (inactive)
COC(=O)c1ccc(C)cc1C1CN=NC12Cc1cc(C)ccc1C2=O (stereo not given)	25.6 µM (inactive)	2.18 µM (inactive)	8.28 µM (inactive)	6.44 µM (inactive)	30 µM (inactive)	23.9 µM (inactive)	9.14 µM (inactive)	8.67 µM (inactive)	13.8 µM (inactive)	26.2 µM (inactive)	24 µM (inactive)	22.8 µM (inactive)	15.3 µM (inactive)	12.1 µM (inactive)	27.2 µM (inactive)	2.37 µM (inactive)	21.7 µM (inactive)	23.4 µM (inactive)	8.22 µM (inactive)	34 µM (inactive)
COC(=O)c1sc(=O)sc1SCc1cccc(CSc2sc(=O)sc2C(=O)OC)c1	27.3 µM (inactive)	60.1 µM (inactive)	> 100 µM (inactive)	> 100 µM (inactive)	> 100 µM (inactive)	39.7 µM (inactive)	23.9 µM (inactive)	57.1 µM (inactive)	26 µM (inactive)	15.9 µM (inactive)	64.6 µM (inactive)	23.2 µM (inactive)	36.4 µM (inactive)	36.1 µM (inactive)	37.2 µM (inactive)	68.9 µM (inactive)	24.2 µM (inactive)	42.8 µM (inactive)	47.9 µM (inactive)	92.3 µM (inactive)
CN1C(=O)N/C(=C\c2ccc(S(=O)(=O)N/N=C/c3ccccc3)cc2)C1=O	26.8 µM (inactive)	37 µM (inactive)	13.6 µM (inactive)	71.9 µM (inactive)	> 100 µM (inactive)	66.2 µM (inactive)	30.9 µM (inactive)	35.5 µM (inactive)	21.2 µM (inactive)	18.9 µM (inactive)	15.5 µM (inactive)	31 µM (inactive)	27.7 µM (inactive)	> 100 µM (inactive)	28.5 µM (inactive)	32 µM (inactive)	17.1 µM (inactive)	53.1 µM (inactive)	15 µM (inactive)	40 µM (inactive)
CC(C)=CC(=O)c1[nH]c2ccccc2c1CC(=O)NCCc1cncn1C	61.8 µM (inactive)	47 µM (inactive)	94.8 µM (inactive)	21.9 µM (inactive)	> 100 µM (inactive)	77.1 µM (inactive)	58.1 µM (inactive)	99.1 µM (inactive)	29.6 µM (inactive)	> 100 µM (inactive)	21.4 µM (inactive)	58.7 µM (inactive)	56.9 µM (inactive)	30 µM (inactive)	62.4 µM (inactive)	50.7 µM (inactive)	36.4 µM (inactive)	25.8 µM (inactive)	> 100 µM (inactive)	32.5 µM (inactive)
CCOC(=O)c1ccc(OCc2nc3cc(C(F)(F)F)ccc3nc2-c2ccccc2)cc1	> 100 µM (inactive)	> 100 µM (inactive)	44 µM (inactive)	> 100 µM (inactive)	> 100 µM (inactive)	> 100 µM (inactive)	> 100 µM (inactive)	> 100 µM (inactive)	> 100 µM (inactive)	> 100 µM (inactive)	> 100 µM (inactive)	> 100 µM (inactive)	> 100 µM (inactive)	> 100 µM (inactive)	> 100 µM (inactive)	> 100 µM (inactive)	> 100 µM (inactive)	> 100 µM (inactive)	> 100 µM (inactive)	> 100 µM (inactive)
C[C@H]1CCC/C=C/[C@@H]2C[C@H](OC(=O)CN(C)C)C[C@H]2[C@H](O)/C=C/C(=O)O1	0.2 µM (active)	0.157 µM (active)	0.0395 µM (active)	0.0476 µM (active)	0.102 µM (active)	0.158 µM (active)	0.169 µM (active)	0.0458 µM (active)	0.0383 µM (active)	0.154 µM (active)	0.0581 µM (active)	0.1 µM (active)	0.232 µM (active)	0.083 µM (active)	0.097 µM (active)	0.135 µM (active)	1.03 µM (active)	0.188 µM (active)	0.153 µM (active)	0.401 µM (active)
COc1cccc2c1C(=O)c1c(O)c3c(c(O)c1C2=O)C[C@@](O)(C(C)=O)C[C@@H]3OC1CC(N(Cc2ccccc2)Cc2ccccc2)C(O)C(C)O1 (stereo not given in full)	14.2 µM (inactive)	4.53 µM (inactive)	14.6 µM (inactive)	14.6 µM (inactive)	20.5 µM (inactive)	8.09 µM (inactive)	22.8 µM (inactive)	16.9 µM (inactive)	30.6 µM (inactive)	15.1 µM (inactive)	15 µM (inactive)	13.7 µM (inactive)	> 27.5 µM (inactive)	28.5 µM (inactive)	4.89 µM (inactive)	11.4 µM (inactive)	17.8 µM (inactive)	39.4 µM (inactive)	16.8 µM (inactive)	14.1 µM (inactive)
CC1(C)CC(=O)C2=C(C1)C(c1ccccc1Cl)C1C(=O)CC(C)(C)CC1(O)O2 (stereo not given)	> 100 µM (inactive)	25.9 µM (inactive)	64.1 µM (inactive)	> 31.6 µM (inactive)	> 100 µM (inactive)	> 100 µM (inactive)	> 100 µM (inactive)	> 72.3 µM (inactive)	> 100 µM (inactive)	> 100 µM (inactive)	> 100 µM (inactive)	> 100 µM (inactive)	> 100 µM (inactive)	> 100 µM (inactive)	> 86.7 µM (inactive)	19.6 µM (inactive)	> 100 µM (inactive)	> 100 µM (inactive)	> 100 µM (inactive)	> 100 µM (inactive)
C[C@H]1CC[C@@H]2[C@@H](C)[C@H]3[C@H](C[C@H]4[C@@H]5CC=C6C[C@@H](O)CC[C@]6(C)[C@H]5C[C@H](O)[C@]34C)N2C1	> 100 µM (inactive)	> 100 µM (inactive)	> 100 µM (inactive)	> 100 µM (inactive)	> 100 µM (inactive)	> 100 µM (inactive)	> 100 µM (inactive)	> 100 µM (inactive)	> 100 µM (inactive)	> 100 µM (inactive)	> 100 µM (inactive)	> 100 µM (inactive)	> 100 µM (inactive)	> 100 µM (inactive)	> 100 µM (inactive)	> 100 µM (inactive)	> 100 µM (inactive)	> 100 µM (inactive)	> 100 µM (inactive)	> 100 µM (inactive)
CO[C@H]1C[C@H](O[C@H]2CC[C@]3(C=O)[C@H]4CC[C@]5(C)[C@@H](C6=CC(=O)OC6)CC[C@]5(O)[C@@H]4CC[C@]3(O)C2)O[C@H](C)[C@H]1O[C@@H]1O[C@H](CO[C@@H]2O[C@H](CO)[C@@H](O)[C@H](O)[C@H]2O)[C@@H](O)[C@H](O)[C@H]1O	0.0356 µM (active)	0.166 µM (active)	0.037 µM (active)	0.103 µM (active)	0.0671 µM (active)	0.0289 µM (active)	0.0241 µM (active)	0.0278 µM (active)	0.0251 µM (active)	0.0281 µM (active)	0.0405 µM (active)	0.0279 µM (active)	0.039 µM (active)	0.0891 µM (active)	0.0434 µM (active)	0.128 µM (active)	0.0845 µM (active)	0.0205 µM (active)	0.235 µM (active)	0.0156 µM (active)
